{"source": "PubChem BioAssay (NCI)", "experiment_in_all_cases": "growth of human tumour cells (NCI), 48 h", "key": {"786-0 renal": {"system": "786-0 renal"}, "A498 renal": {"system": "A498 renal"}, "A549 NSCLC": {"system": "A549 NSCLC"}, "ACHN renal": {"system": "ACHN renal"}, "BT-549 breast": {"system": "BT-549 breast"}, "CAKI-1 renal": {"system": "CAKI-1 renal"}, "CCRF-CEM leukemia": {"system": "CCRF-CEM leukemia"}, "COLO 205 colon": {"system": "COLO 205 colon"}, "DU-145 prostate": {"system": "DU-145 prostate"}, "EKVX NSCLC": {"system": "EKVX NSCLC"}, "HCC-2998 colon": {"system": "HCC-2998 colon"}, "HCT-116 colon": {"system": "HCT-116 colon"}, "HCT-15 colon": {"system": "HCT-15 colon"}, "HL-60(TB) leukemia": {"system": "HL-60(TB) leukemia"}, "HOP-62 NSCLC": {"system": "HOP-62 NSCLC"}, "HOP-92 NSCLC": {"system": "HOP-92 NSCLC"}, "HS 578T breast": {"system": "HS 578T breast"}, "HT29 colon": {"system": "HT29 colon"}, "IGROV1 ovarian": {"system": "IGROV1 ovarian"}, "K-562 leukemia": {"system": "K-562 leukemia"}, "KM12 colon": {"system": "KM12 colon"}, "LOX IMVI melanoma": {"system": "LOX IMVI melanoma"}, "M14 melanoma": {"system": "M14 melanoma"}, "MALME-3M melanoma": {"system": "MALME-3M melanoma"}, "MCF7 breast": {"system": "MCF7 breast"}, "MDA-MB-231 breast": {"system": "MDA-MB-231 breast"}, "MDA-MB-435": {"system": "MDA-MB-435"}, "MDA-MB-468 breast": {"system": "MDA-MB-468 breast"}, "MOLT-4 leukemia": {"system": "MOLT-4 leukemia"}}, "note": "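Tested at 5 concentrations; 48 h exposure; 96-well plates; endpoints linearly interpolated, else capped at highest concentration. GI50 is the concentration that inhibits growth by half. TGI: total growth inhibition.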", "data": [{"compound": "COc1ccc(C(=O)/C=C/c2ccc3ccccc3c2)cc1S(N)(=O)=O", "values": [{"measurement": "GI50", "setting": "786-0 renal", "result": 1.69, "unit": "µM"}, {"measurement": "TGI", "setting": "786-0 renal", "result": 3.62, "unit": "µM"}, {"measurement": "GI50", "setting": "A498 renal", "result": 14.6, "unit": "µM"}, {"measurement": "TGI", "setting": "A498 renal", "result": 28.2, "unit": "µM"}, {"measurement": "GI50", "setting": "A549 NSCLC", "result": 1.99, "unit": "µM"}, {"measurement": "TGI", "setting": "A549 NSCLC", "result": 7.72, "unit": "µM"}, {"measurement": "GI50", "setting": "ACHN renal", "result": 1.78, "unit": "µM"}, {"measurement": "TGI", "setting": "ACHN renal", "result": 3.37, "unit": "µM"}, {"measurement": "GI50", "setting": "BT-549 breast", "result": 1.53, "unit": "µM"}, {"measurement": "TGI", "setting": "BT-549 breast", "result": 3.27, "unit": "µM"}, {"measurement": "GI50", "setting": "CAKI-1 renal", "result": 2.12, "unit": "µM"}, {"measurement": "TGI", "setting": "CAKI-1 renal", "result": 6.17, "unit": "µM"}, {"measurement": "GI50", "setting": "CCRF-CEM leukemia", "result": 2.63, "unit": "µM"}, {"measurement": "TGI", "setting": "CCRF-CEM leukemia", "result": 6.4, "unit": "µM"}, {"measurement": "GI50", "setting": "COLO 205 colon", "result": 1.96, "unit": "µM"}, {"measurement": "TGI", "setting": "COLO 205 colon", "result": 4.06, "unit": "µM"}, {"measurement": "GI50", "setting": "DU-145 prostate", "result": 3.31, "unit": "µM"}, {"measurement": "TGI", "setting": "DU-145 prostate", "result": 11.8, "unit": "µM"}, {"measurement": "GI50", "setting": "EKVX NSCLC", "result": 6.61, "unit": "µM"}, {"measurement": "TGI", "setting": "EKVX NSCLC", "result": 20.1, "unit": "µM"}, {"measurement": "GI50", "setting": "HCC-2998 colon", "result": 1.56, "unit": "µM"}, {"measurement": "TGI", "setting": "HCC-2998 colon", "result": 2.93, "unit": "µM"}, {"measurement": "GI50", "setting": "HCT-116 colon", "result": 1.9, "unit": "µM"}, {"measurement": "TGI", "setting": "HCT-116 colon", "result": 4.82, "unit": "µM"}, {"measurement": "GI50", "setting": "HCT-15 colon", "result": 0.574, "unit": "µM"}, {"measurement": "TGI", "setting": "HCT-15 colon", "result": 2.08, "unit": "µM"}, {"measurement": "GI50", "setting": "HL-60(TB) leukemia", "result": 1.61, "unit": "µM"}, {"measurement": "TGI", "setting": "HL-60(TB) leukemia", "result": 4.11, "unit": "µM"}, {"measurement": "GI50", "setting": "HOP-62 NSCLC", "result": 1.99, "unit": "µM"}, {"measurement": "TGI", "setting": "HOP-62 NSCLC", "result": 5.49, "unit": "µM"}, {"measurement": "GI50", "setting": "HOP-92 NSCLC", "result": 1.9, "unit": "µM"}, {"measurement": "TGI", "setting": "HOP-92 NSCLC", "result": 9.2, "unit": "µM"}, {"measurement": "GI50", "setting": "HS 578T breast", "result": 17.5, "unit": "µM"}, {"measurement": "TGI", "setting": "HS 578T breast", "result": 54.8, "unit": "µM"}, {"measurement": "GI50", "setting": "HT29 colon", "result": 1.67, "unit": "µM"}, {"measurement": "TGI", "setting": "HT29 colon", "result": 3.53, "unit": "µM"}, {"measurement": "GI50", "setting": "IGROV1 ovarian", "result": 2.07, "unit": "µM"}, {"measurement": "TGI", "setting": "IGROV1 ovarian", "result": 5.36, "unit": "µM"}, {"measurement": "GI50", "setting": "K-562 leukemia", "result": 1.58, "unit": "µM"}, {"measurement": "TGI", "setting": "K-562 leukemia", "result": 5.45, "unit": "µM"}, {"measurement": "GI50", "setting": "KM12 colon", "result": 1.56, "unit": "µM"}, {"measurement": "TGI", "setting": "KM12 colon", "result": 3.33, "unit": "µM"}, {"measurement": "GI50", "setting": "LOX IMVI melanoma", "result": 1.32, "unit": "µM"}, {"measurement": "TGI", "setting": "LOX IMVI melanoma", "result": 2.59, "unit": "µM"}, {"measurement": "GI50", "setting": "M14 melanoma", "result": 2.26, "unit": "µM"}, {"measurement": "TGI", "setting": "M14 melanoma", "result": 5.98, "unit": "µM"}, {"measurement": "GI50", "setting": "MALME-3M melanoma", "result": 3.2, "unit": "µM"}, {"measurement": "TGI", "setting": "MALME-3M melanoma", "result": 14.9, "unit": "µM"}, {"measurement": "GI50", "setting": "MCF7 breast", "result": 1.54, "unit": "µM"}, {"measurement": "TGI", "setting": "MCF7 breast", "result": 4.72, "unit": "µM"}, {"measurement": "GI50", "setting": "MDA-MB-231 breast", "result": 2.5, "unit": "µM"}, {"measurement": "TGI", "setting": "MDA-MB-231 breast", "result": 7.51, "unit": "µM"}, {"measurement": "GI50", "setting": "MDA-MB-435", "result": 2.4, "unit": "µM"}, {"measurement": "TGI", "setting": "MDA-MB-435", "result": 6.72, "unit": "µM"}, {"measurement": "GI50", "setting": "MDA-MB-468 breast", "result": 1.43, "unit": "µM"}, {"measurement": "TGI", "setting": "MDA-MB-468 breast", "result": 2.9, "unit": "µM"}, {"measurement": "GI50", "setting": "MOLT-4 leukemia", "result": 2.09, "unit": "µM"}, {"measurement": "TGI", "setting": "MOLT-4 leukemia", "result": 4.95, "unit": "µM"}]}]}
